Measurements: patent US6538019B1, “Functional emulsions” (Japan as represented by Director of National Food Research …, priority 2000, dated 2003)

Experiments:
[1] = cited from earlier work
[2] = Dispersion behavior by small-angle X-ray scattering method (SAXS); type: physicochemical
Excerpt: Further, the dispersion behavior of the polyglycerol oleic acid ester (PG) was examined using a small-angle X-ray scattering method (SAXS). It turned out that the polyglycerol oleic acid ester (PG) in ethanol was a molecular assembly having the radius of inertia of about 7 Å and the polyglycerol oleic acid ester (PG) in triolein was a molecular assembly having the radius of inertia of about 90 Å. As a result, it can be said that the stability of emulsions can be achieved by increasing the ratio of triolein with respect to ethanol.

[3] = Stability of the emulsion (time to phase separation of E/O emulsion); type: physicochemical; conditions: concentration of the emulsifying agent 5%; ratio of triolein and ethanol 8:2
Procedure: First, sunflower seed oil (having the triolein purity 90% or more, as produced by Nippon Lever B. V.) as a continuous phase, 95% ethanol as a dispersed phase, and polyglycerol oleic acid ester (MO750, HLB12.9) as an emulsifying agent (surfactant) were prepared.
Next, polyphenol was dissolved in ethanol. As the polyphenol to be used, catechin, anthocyanin, quercetin can be listed.
Thereafter, the ethanol, to which 1 wt % polyglycerol oleic acid ester (PG) was added, and triolein (sunflower seed oil) were stirred at 3000 rpm for ten minutes with a homogenizer (Polytron: PT3000), thereby attempting the production of an emulsion.
Furthermore, the possibility of using emulsifying agents other than polyglycerol oleic acid ester (PG) was examined. In Table 2, DAO750 indicates decaglycerol decaester, PO500 indicates hexaglycerol pentaester, PO310 indicates tetraglycerol pentaester, MO310 indicates tetraglycerol monoester, MO500 indicates hexaglycerol monoester, and MO750 indicates polyglycerol oleic acid ester.

[4] = Stability of the emulsions examined by a turbidity method; type: physicochemical; conditions: addition amount of PG varied within 1 wt %-5 wt %
Excerpt: Next, the addition amount of polyglycerol oleic acid ester (PG) was variously changed within the range of 1 wt %-5 wt % and the stability of the emulsions was examined by a turbidity method.

Substance	Solubility with respect to water [1]	Radius of inertia of molecular assembly ([2]; in ethanol)	Radius of inertia of molecular assembly ([2]; in triolein)	Stability of E/O emulsion by emulsifying agent [3]	Change in emulsion stability [4]
anthocyanin	slightly soluble in water	–	–	–	–
polyglycerol oleic acid ester [MO750]	–	about 7 Å	about 90 Å	+++ (The sample did not cause the phase separation until five months.)	A conspicuous change in emulsion stability was not found
